Experimental data as given in publication PMC6397271 (Scientific Reports, 2019).
Where two headings read alike, the source gives them in different places.

How the values were obtained:
Experiment in all cases: microbe, parasite or virus in culture
S. aureus MRSA 12673 = assay type: cell-based, Staphylococcus aureus; conditions: for MIC: raw MIC
Description: (§1) Three bacterial strains of MRSA (N315, 12673, 6347) and two of Enterococcus spp. (E. faecium, E. faecalis) were used. With respect to MRSA, N315 represented a reference Van-susceptible strain (GenBank GCA_00000645.1) isolated from a patient while 12673 (Van-intermediately susceptible) and 6347 (a h-VISA which appears at frequency of <10^−5 to 10^−6 is composed of two subpopulations of bacteria: one susceptible and one intermediately resistant)[38] were clinical strains obtained from patients of The Clinical University Centre of Gdańsk (UCK). […] The clinical strain isolates originated from the collection of the Department of Pharmaceutical Technology and Biochemistry, Faculty of Chemistry, Gdańsk University of Technology.
(§2) The strains were grown in Mueller-Hinton broth (MH cation-adjusted, Becton Dickinson) or Brain Heart Infusion broth (BHI, Becton Dickinson), respectively. The cultivation was carried out in an aerobic atmosphere at 37 °C for 24 hours and, afterwards, the bacterial cultures were diluted in geometric progression with a proper broth. Next, 100 µl of each dilution was inoculated in an agar plate and incubated at 37 °C for 24 h. The next procedures included determination of Colony Forming Units (CFU)/ml and minimal inhibitory concentration (MIC) of the compounds in question. The latter procedure was carried out according to the microbroth dilution technique using 96-well plates. The MICs were evaluated by using the metabolic assay based on the resazurin dye. The assay was performed in triplicates.

S. aureus MRSA N315 = assay type: cell-based, Staphylococcus aureus; conditions: for MIC: raw MIC
Description: as §1, §2

[1] = system: S. aureus MRSA hetero-VISA 6347; assay type: cell-based, Staphylococcus aureus; conditions: for MIC: raw MIC
Description: as §1, §2

[2] = system: Enterococcus faecalis 3937158; assay type: cell-based
Description: as §1, §2

[3] = system: Enterococcus faecium 3934825; assay type: cell-based; conditions: for MIC: raw MIC
Description: as §1, §2

[4] = first block, test a, repetition 1, read-out: MIC1a
[5] = first block, test a, repetition 2, read-out: MIC2a
[6] = first block, test a, repetition 3, read-out: MIC3a
[7] = first block, test b, repetition 1, read-out: MIC1b
[8] = first block, test b, repetition 2, read-out: MIC2b
[9] = first block, test b, repetition 3, read-out: MIC3b
[10] = test a, repetition 1, read-out: MIC1a
[11] = test a, repetition 2, read-out: MIC2a
[12] = test a, repetition 3, read-out: MIC3a
[13] = test b, repetition 1, read-out: MIC1b
[14] = test b, repetition 2, read-out: MIC2b
[15] = test b, repetition 3, read-out: MIC3b
[16] = same test as μM value, mean ± SD

CC[C@H](C)[C@H](NC(=O)[C@H](CCCCN)NC(=O)[C@H](CCCCN)NC(=O)[C@H](C)NC(=O)[C@H](CC(C)C)NC(=O)[C@H](C)NC(=O)[C@H](C)NC(=O)[C@H](CC(C)C)NC(=O)[C@H](C)NC(=O)[C@H](CCCCN)NC(=O)[C@H](CC(C)C)NC(=O)[C@H](CC(N)=O)NC(=O)[C@@H](NC(=O)[C@H](CCCCN)NC(=O)CNC(=O)[C@H](CC(C)C)NC(=O)[C@H](CC(C)C)NC(=O)[C@H](Cc1ccc(O)cc1)NC(=O)CNC(=O)[C@H](C)N)[C@@H](C)CC)C(=O)N[C@@H](CC(C)C)C(=O)N[C@@H](Cc1cn(CCOCCOCCOCCOCCC(=O)N[C@@]2(C)C[C@H](O[C@H]3[C@H](Oc4c5cc6cc4Oc4ccc(cc4Cl)[C@@H](O)[C@@H](NC(=O)[C@@H](CC(C)C)NC)C(=O)N[C@@H](CC(N)=O)C(=O)N[C@H]6C(=O)N[C@H]4C(=O)N[C@H](C(=O)N[C@H](C(=O)O)c6cc(O)cc(O)c6-c6cc4ccc6O)[C@H](O)c4ccc(c(Cl)c4)O5)O[C@H](CO)[C@@H](O)[C@@H]3O)O[C@@H](C)[C@H]2O)nn1)C(N)=O [conjugate III, TP10-Ala(PEG4-Van)]
25.0 ± 5.1 µM: MIC ([2]; microbroth dilution, 96-well, resazurin, 37 °C, 24 h, mean ± SD, at least three independent experiments in triplicates)
6.4 ± 1.7 µg/mL: MIC in (μg/ml) [1, 16]
3.12 µM: MIC (S. aureus MRSA 12673; [10]) | MIC (S. aureus MRSA 12673; [12]) | MIC (S. aureus MRSA 12673; [13]) | MIC (S. aureus MRSA 12673; [15])
1.6 µM: MIC [1, 4] | MIC [1, 7] | MIC [1, 8] | MIC [1, 9]
3.1 ± 1.6 µg/mL: MIC in (μg/ml) (S. aureus MRSA 12673; [16])
25 µM: MIC ([2]; raw MIC, first block, test a, repetition 1, read-out: MIC1a) | MIC ([2]; raw MIC, first block, test a, repetition 2, read-out: MIC2a) | MIC ([2]; raw MIC, first block, test a, repetition 3, read-out: MIC3a) | MIC ([2]; raw MIC, first block, test b, repetition 2, read-out: MIC2b) | MIC ([2]; raw MIC, first block, test b, repetition 3, read-out: MIC3b)
6.4 µM: MIC [1, 10] | MIC [1, 13] | MIC [1, 14] | MIC [1, 15]
0.78 µM: MIC (S. aureus MRSA 12673; [4]) | MIC (S. aureus MRSA 12673; [6]) | MIC (S. aureus MRSA 12673; [7]) | MIC (S. aureus MRSA 12673; [9]) | MIC [1, 5] | MIC [1, 6]
3.2 µM: MIC [1, 11] | MIC [1, 12]
50.01 µM: MIC (S. aureus MRSA N315; [10]) | MIC (S. aureus MRSA N315; [12]) | MIC (S. aureus MRSA N315; [13]) | MIC (S. aureus MRSA N315; [14]) | MIC ([2]; raw MIC, test b, repetition 1, read-out: MIC1b) | MIC [3, 10] | MIC [3, 12] | MIC [3, 14] | MIC [3, 15]
6.24 µM: MIC (S. aureus MRSA 12673; [11]) | MIC (S. aureus MRSA 12673; [14])
100.0 ± 20.4 µg/mL: MIC in (μg/ml) [2, 16]
12.5 µM: MIC (S. aureus MRSA N315; [4]) | MIC (S. aureus MRSA N315; [6]) | MIC (S. aureus MRSA N315; [7]) | MIC (S. aureus MRSA N315; [8]) | MIC ([2]; raw MIC, first block, test b, repetition 1, read-out: MIC1b) | MIC [3, 4] | MIC [3, 6] | MIC [3, 8] | MIC [3, 9]
25.01 µM: MIC (S. aureus MRSA N315; [11]) | MIC (S. aureus MRSA N315; [15]) | MIC [3, 11] | MIC [3, 13]
100.02 µM: MIC ([2]; raw MIC, test a, repetition 1, read-out: MIC1a) | MIC ([2]; raw MIC, test a, repetition 2, read-out: MIC2a) | MIC ([2]; raw MIC, test a, repetition 3, read-out: MIC3a) | MIC ([2]; raw MIC, test b, repetition 2, read-out: MIC2b) | MIC ([2]; raw MIC, test b, repetition 3, read-out: MIC3b)
1.56 µM: MIC (S. aureus MRSA 12673; [5]) | MIC (S. aureus MRSA 12673; [8])
6.25 µM: MIC (S. aureus MRSA N315; [5]) | MIC (S. aureus MRSA N315; [9]) | MIC [3, 5] | MIC [3, 7]
50.0 ± 12.9 µg/mL: MIC in (μg/ml) (S. aureus MRSA N315; [16]) | MIC in (μg/ml) [3, 16]
